Data set [1] has as its system Escherichia coli K-12 AG100, AG112 and derived fluoroquinolone-resistant mutants (wild-type acrAB). The conditions noted are these: whole energized cells.
The subject of data set [2] is Escherichia coli K-12 AG100, its Mar mutant AG112 and derived fluoroquinolone-resistant mutants (acrAB+). Nature of the data set: MIC by broth microdilution, acrAB+ strains. The conditions noted are these: Escherichia coli. It counts as cell-based. On the procedure: Selection of fluoroquinolone-resistant mutants. 1-AG100, 2°-AG100, 3*-AG100, 4*-AG100 and 1′-AG112, 2′-AG112, 3′-AG112 were sequential step mutants derived from AG 100 and AG112, respectively, on solid media. For each step, about 10^11 cells of an overnight culture were plated on several LB agar plates supplemented with increasing concentrations of OFL. Single colonies were further purified on OFL-supplemented agar plates. Mutant 2°-AG100 came out of one series, while mutants 3*- and 4*-AG100 came from a second series.
(§1) Susceptibility testing. MICs of selected antimicrobial agents were determined by a standard broth microdilution procedure with cation-adjusted Mueller-Hinton broth (Becton Dickinson, Cockeysville, Md.) and an inoculum of 5×10^5 CFU/ml according to NCCLS performance and interpretive guidelines (NCCLS. 1997. Methods for dilution antimicrobial susceptibility. Tests for bacteria that grow aerobically—Fourth Edition; Approved Standard. NCCLS document M7-A4 (ISBN 1-56238-309-4). NCCLS, 940 West Valley Road, Suite 1400, Wayne, Pa. 19087). Antimicrobial agents on the commercially available microtiter plates (Merlin Diagnostics GmbH, Bornheim, Germany) included the FQs ciprofloxacin (CIP), enoxacin, fleroxacin, nor-flo-xacin, ofloxacin (OFL), pefloxacin, sparfloxacin (SPX), and trovafloxacin (TVA). They also included tetracycline (TET), chloramphenicol (CML), trimethoprim (TMP), cefoxitin (CFOX), cefaclor, cefixim and loracarbef. MICs of bile salts were determined by a broth macrodilution procedure: sodium cholate and sodium deoxycholate were serially diluted twofold in LB broth and tubes inoculated at 5×10^5 CFU/ml. MICs of both antibiotics and bile salts were determined twice in independent experiments with reproducible results.
A general note: In broth dilution the organism is exposed to a series of concentrations in liquid medium.

In data set [3] the test system is Escherichia coli AG100, AG112 and derived fluoroquinolone-resistant mutants with ΔacrAB. Briefly: MIC by broth microdilution, AcrAB-deleted strains. The conditions noted are these: Escherichia coli. The data set is classed as cell-based. On the procedure:
as §1
P1 transduction. […] DNA sequencing.

Data set [4] relates to Escherichia coli AG100, AG112 and derived mutants bearing ΔacrAB. The conditions noted are these: all strains, energized cells.

Molecules are shown by their SMILES. Values after ≈ are worked out from the molar mass of the structure shown. Read-outs that look alike come from different tables or passages of the source. Bounds are passed on as bounds.

As usually defined, the MIC is the lowest concentration found to suppress growth. In the case of `O=C(O)c1cn(C2CC2)c2cc(N3CCNCC3)c(F)cc2c1=O` [CIP, ciprofloxacin], the “Time at which CIP accumulation reached a plateau” value in data set [1] is recorded as at most 5 min. Also, the MIC in data set [2] (strain 1-AG100, acrAB+, read-out: MIC) is 0.25 µg/mL (≈ 0.754 µM); in data set [2] (strain 1-AG112 (1′-AG112), acrAB+, read-out: MIC), 0.5 µg/mL (≈ 1.51 µM); in data set [2] (strain 2-AG100 (2°-AG100), acrAB+) it was 0.5 µg/mL (≈ 1.51 µM); in data set [2] (strain 2-AG112 (2′-AG112), acrAB+, read-out: MIC), 2 µg/mL (≈ 6.04 µM); in data set [2] (strain 3*-AG100, acrAB+, read-out: MIC), 1 µg/mL (≈ 3.02 µM); in data set [2] (strain 3-AG112 (3′-AG112), acrAB+, read-out: MIC) it was 4 µg/mL (≈ 12.1 µM). The MIC was 2 µg/mL (≈ 6.04 µM) in data set [2] (strain 4*-AG100, acrAB+, read-out: MIC); at most 0.015 µg/mL in data set [2] (strain AG100, acrAB+, read-out: MIC); 0.06 µg/mL (≈ 0.181 µM) in data set [2] (strain AG112 (Mar mutant), acrAB+); 0.06 µg/mL (≈ 0.181 µM) in data set [3] (strain 1-AG100, ΔacrAB); 0.03 µg/mL (≈ 0.0905 µM) in data set [3] (strain 1-AG112 (1′-AG112), ΔacrAB); 0.06 µg/mL (≈ 0.181 µM) in data set [3] (strain 2-AG100 (2°-AG100), ΔacrAB). Besides, the MIC in data set [3] (strain 2-AG112 (2′-AG112), ΔacrAB) is 0.03 µg/mL (≈ 0.0905 µM); in data set [3] (strain 3*-AG100, ΔacrAB), 0.06 µg/mL (≈ 0.181 µM); in data set [3] (strain 3-AG112 (3′-AG112), ΔacrAB) it was 0.03 µg/mL (≈ 0.0905 µM); in data set [3] (strain 4*-AG100, ΔacrAB) it was 0.125 µg/mL (≈ 0.377 µM); in data set [3] (strain AG100, ΔacrAB) it was at most 0.015 µg/mL; in data set [3] (strain AG112, ΔacrAB), at most 0.015 µg/mL. The “Active efflux of ciprofloxacin upon deletion of AcrAB” value in data set [4] is listed as “completely aborted”; in data set [4] (listed as cfx), “completely abolished”.

The values are drawn from patent publication US8012711B2, “Methods of screening for compounds that reduce microbial resistance to fluoroquinolones” (priority 1999, dated 2011).
